{"source": "patent US8173695B2", "about": "“Kappa selective opioid receptor antagonist” (Eli Lilly and Company, priority 2008, dated 2012)", "key": {"P rats": {"test_system": "P rats", "assay": "P rat progressive ratio responding for ethanol", "assay_type": "in vivo", "conditions": "10 mg/kg p.o. 60 min prior to testing, p<0.05 versus vehicle", "experimental": "This test assesses the motivation to work for access to ethanol in P rats following ethanol abstinence. This animal model simulates ethanol craving.\nFemale P rats (Indiana University Medical Center, Indianapolis, Ind., USA) are pair-housed in an environmentally controlled facility and maintained on a 12 h light/dark cycle (lights on at 0600 hours).\nCompounds are solubilized in sterile water by the dropwise addition of 85% lactic acid, mixed freshly prior to use, and administered in a volume of 1 mL/kg. Unless otherwise stated, compounds are administered p.o. 60 min prior to the experimental session. Doses are assigned using a counterbalanced, within-subject design (n=8-11 per experiment).\nIn order to reduce novelty-induced avoidance of ethanol (EtOH), the water bottle on the homecage is replaced with a bottle containing 15% EtOH (v/v; Ancare, Bellmore, N.Y.) for two days prior to operant training. Throughout the rest of the experiment, rats are allowed ad libitum access to water and standard laboratory chow in the homecage.\nDaily 60-min sessions are conducted in standard rat operant chambers, housed within sound-attenuating chambers (MED Associates, Inc., St. Albans, Vt., USA). The 0.5 cm diameter stainless steel bars of the floor grid of the operant chambers are positioned approximately 1.5 cm apart. Two retractable operant levers in each operant chamber are located approximately 15 cm above the grid floor and 13 cm apart. A recessed trough is located in the space between the levers, through which a dipper cup (0.1 mL capacity) is raised to deliver response-contingent ethanol (15% EtOH, v/v). Upon a reinforced response, a stimulus light is illuminated during the 4-sec dipper cup access. Operation of the stimuli and behavioral responses are controlled and recorded by personal computer for offline analysis. At the end of each session, all stimuli are turned off and levers are retracted.\nRats are trained to press a lever for EtOH reinforcement. Initially, responses on either lever are considered correct responses and are rewarded with reinforcement. […]"}, "Male Fischer F-344 rats": {"test_system": "Male Fischer F-344 rats", "assay": "Stress-induced hyperthermia (in rat)", "assay_type": "in vivo", "conditions": "for stress-induced hyperthermia (T2−T1): in °C"}, "[1]": {"conditions": "Study 1, 1, 3 and 10 mg/kg p.o."}}}
{"smiles": "Cc1cc(C)cc([C@@H]2CCCN2Cc2ccc(Oc3ccc(C(N)=O)cc3F)cc2)c1", "note": "(single isomer, unassigned) [Example 1A]", "values": [{"measurement": "breakpoint", "setting": "P rats", "value": "reduced"}, {"measurement": "number of active lever responses", "setting": "P rats", "value": "reduced"}, {"measurement": "quantity of ethanol consumed", "setting": "P rats", "value": "reduced"}, {"measurement": "stress-induced hyperthermia (T2−T1)", "setting": "Male Fischer F-344 rats; Study 1, 1 mg/kg po, 60 min pretreatment, body temperature in degrees C.", "value": "0.84±0.07"}, {"measurement": "stress-induced hyperthermia (T2−T1)", "setting": "Male Fischer F-344 rats; Study 1, 3 mg/kg po, 60 min pretreatment", "value": "0.80±0.10"}, {"measurement": "stress-induced hyperthermia (T2−T1)", "setting": "Male Fischer F-344 rats; Study 1, 10 mg/kg po, 60 min pretreatment", "value": "0.75±0.11"}, {"measurement": "baseline core body temperature", "setting": "Male Fischer F-344 rats; [1]", "value": "not affected"}, {"measurement": "reduction in stress-induced hyperthermia (T2−T1), in words", "setting": "Male Fischer F-344 rats; [1]", "value": "dose-dependent, but non-significant, reduction"}, {"measurement": "stress-induced hyperthermia (T2−T1)", "setting": "Male Fischer F-344 rats; Study 2, 10 mg/kg Example 1A alone, po", "value": "0.74±0.04"}, {"measurement": "baseline core body temperature", "setting": "Male Fischer F-344 rats; Study 2, 1, 3 and 10 mg/kg p.o. together with 1 mg/kg chlordiazepoxide", "value": "not affected"}, {"measurement": "reduction in stress-induced hyperthermia, in words", "setting": "Male Fischer F-344 rats; Study 2, together with 1 mg/kg chlordiazepoxide, significant reduction p<0.05", "value": "increases the efficacy of a sub-threshold dose of chlordiazepoxide"}]}
